Some results are limits rather than exact numbers.

Consider 24 compounds from US20070066674A1, “Tricyclic imidzopyridines for use as gastric secretion inhibitors” (Altana Pharma AG, priority 2003, published 2007).

The first assay deals with pentagastrin-stimulated acid secretion of the perfused rat stomach. Kind of assay: Secretion-inhibiting action on the perfused rat stomach. It is filed as in vivo. Particulars: dose 1 μmol/kg i.d., anesthetized CD rat, intraduodenal administration. The text has this: In Table A which follows, the influence of the compounds of the formula 1 according to the invention and of their optical antipodes of the formula 2 on the pentagastrin-stimulated acid secretion of the perfused rat stomach after intraduodenal administration in vivo is shown.
The abdomen of anesthetized rats (CD rat, female, 200-250 g; 1.5 g/kg i.m. urethane) was opened after tracheotomy by a median upper abdominal incision and a PVC catheter was fixed transorally in the esophagus and another via the pylorus such that the ends of the tubes just projected into the gastric lumen. The catheter leading from the pylorus led outward into the right abdominal wall through a side opening.
After thorough rinsing (about 50-100 ml), warm (37° C.) physiological NaCl solution was continuously passed through the stomach (0.5 ml/min, pH 6.8-6.9; Braun-Unita I). The pH (pH meter 632, glass electrode EA 147; φ=5 mm, Metrohm) and, by titration with a freshly prepared 0.01 N NaOH solution to pH 7 (Dosimat 665 Metrohm), the secreted HCl were determined in the effluent in each case collected at an interval of 15 minutes.
The gastric secretion was stimulated by continuous infusion of […] (=1.65 ml/h) of i.v. pentagastrin (left femoral vein) about 30 min after the end of the operation (i.e. after determination of 2 preliminary fractions). The substances to be tested were administered intraduodenally in a 2.5 ml/kg liquid volume 60 min after the start of the continuous pentagastrin infusion. The body temperature of the animals was kept at a constant 37.8-38° C. by infrared irradiation and heat pads (automatic, stepless control by means of a rectal temperature sensor).
For the compound `Cc1nc2c3c(c(C(=O)N(C)C)cn2c1C)CC[C@@H](c1ccccc1)O3.O=C(O)C(O)C(O)C(=O)O` [Example 1, (9S)-2,3-Dimethyl-9-phenyl-7H8,9dihydro-pyrano[2,3-c]-imidazo[1,2-a]pyridine-6-carboxylic acid dimethylamide (R,R)-tartrate], the “Inhibition of acid secretion (%)” value is 100%.

`CNC(=O)c1cn2c(C)c(C)nc2c2c1CC[C@@H](c1ccccc1)O2` [Example 7, (9S)-2,3-Dimethyl-9-phenyl-7H-8,9-dihydro-pyrano[2,3-c]-imidazo[1,2-a]pyridine-6-carboxylic acid methylamide]: the “Inhibition of acid secretion (%)” value stood at 100%.

Consider `Cc1ccccc1[C@H]1CCc2c(C(=O)N(C)C)cn3c(C)c(C)nc3c2O1` [I, (9R)-2,3-Dimethyl-9-(2-methylphenyl)-7H-8,9-dihydro-pyrano[2,3-c]-Imidazo[1,2-a]pyridine-6-carboxylic acid dimethylamide], for which the “Inhibition of acid secretion (%)” value is listed as <50%.

Take `Cc1ccccc1[C@@H]1CCc2c(C(=O)N(C)C)cn3c(C)c(C)nc3c2O1` [Example 9, (9S)-2,3-Dimethyl-9-(2-methylphenyl)-7H-8,9-dihydro-pyrano[2,3-c]-imidazo[1,2-a]pyridine-6-carboxylic acid dimethylamide]: the “Inhibition of acid secretion (%)” value was determined as 100%.

With `Cc1nc2c3c(c(C(=O)N(C)C)cn2c1C)CC[C@@H](c1ccc(F)cc1)O3` [Example 11, (9S)-9-(4-Fluorophenyl)-2,3-dimethyl-7H-8,9-dihydro-pyrano[2,3-c]-imidazo[1,2-a]pyridine-6-carboxylic acid dimethylamide], the “Inhibition of acid secretion (%)” value was found to be 100%.

On to `Cc1nc2c3c(c(C(=O)N(C)C)cn2c1C)CC[C@H](c1ccc(F)cc1)O3` [K, (9R)-9-(4-Fluorophenyl)-2,3dimethyl-7H-8,9-dihydro-pyrano[2,3-c]-imidazo[1,2-a]pyridine-6-carboxylic acid dimethylamide], for which the “Inhibition of acid secretion (%)” value is given as <40%.

On to `Cc1nc2c3c(c(C(=O)N(C)C)cn2c1C)CC[C@@H](c1ccccc1F)O3` [Example 10, (9S)-9-(2-Fluorophenyl)-2,3-dimethyl-7H-8,9-dihydro-pyrano[2,3-c]-imidazo[1,2-a]pyridine-6-carboxylic acid dimethylamide], for which the “Inhibition of acid secretion (%)” value was 100%.

With `Cc1nc2c3c(c(C(=O)N(C)C)cn2c1C)CC[C@@H](c1ccccc1)O3` [Example 2, (9S)-2,3-Dimethyl-9-phenyl-7H-8,9-dihydro-pyrano[2,3c]-imidazo[1,2-a]pyridine-6-carboxylic acid dimethylamide], the “Inhibition of acid secretion (%)” value is 100%.

The assay is the same for the next values; noted with them: dose 2 μmol/kg i.d., anesthetized CD rat, intraduodenal administration.
For the compound `Cc1nc2c3c(c(C(N)=O)cn2c1C)CC[C@@H](c1ccccc1)O3` [Example 8, (9S)-2,3-Dimethyl-9-phenyl-7H-8,9-dihydro-pyrano[2,3c]-imidazo[1,2-a]pyridine-6-carboxylic acid amide], the “Inhibition of acid secretion (%)” value is recorded as 100%.

The assay is the same for the next values; noted with them: dose 3 μmol/kg i.d., anesthetized CD rat, intraduodenal administration.
On to `Cc1nc2c3c(c(C(=O)N(C)C)cn2c1C)CC[C@H](c1ccccc1)O3.O=C(O)C(O)C(O)C(=O)O` [A, (9R)2,3-Dimethyl-9-phenyl-7H-8,9-dihydro-pyrano[2,3-c]-imidazo[1,2-a]pyridine-6-carboxylic acid dimethylamide (S,S)-tartrate], for which the “Inhibition of acid secretion (%)” value is reported as <40%.

For the compound `CCc1c(C)nc2c3c(c(C(=O)N(C)C)cn12)CC[C@@H](c1ccccc1)O3` [Example 5, (9S)-3-Ethyl-2-methyl-9-phenyl-7H-8,9-dihydro-pyrano[2,3c]-imidazo[1,2-a]pyridine-6-carboxylic acid dimethylamide], the “Inhibition of acid secretion (%)” value is reported as >70%.

`Cc1nc2c3c(c(C(=O)N(C)C)cn2c1Br)CC[C@@H](c1ccccc1)O3` [Example 4, (9S)-3Bromo-2-methyl-9-phenyl-7H-8,9-dihydro-pyrano[2,3-c]-imidazo[1,2-a]pyridine-6-carboxylic acid dimethylamide]: the “Inhibition of acid secretion (%)” value is >60%.

As for `Cc1nc2c3c(c(C(=O)N(C)C)cn2c1C)CC[C@@H](c1cccs1)O3` [Example 12, (9S)-2,3-Dimethyl-9-thiophen-2-yl-7H-8,9-dihydro-pyrano[2,3-c]-imidazo[1,2-a]pyridine-6-carboxylic acid dimethylamide], the “Inhibition of acid secretion (%)” value amounted to 100%.

On to `Cc1nc2c3c(c(C(N)=O)cn2c1C)CC[C@H](c1ccccc1)O3` [H, (9R)-2,3-Dimethyl-9-phenyl-7H-8,9-dihydro-pyrano[2,3-c]-imidazo[1,2-a]pyridine-6-carboxylic acid amide], for which the “Inhibition of acid secretion (%)” value is reported as <40%.

As for `Cc1nc2c3c(c(C(=O)N4CCCC4)cn2c1C)CC[C@H](c1ccccc1)O3` [F, (9R)-(2,3-Dimethyl-9-phenyl-7H-8,9-dihydro-pyrano[2,3-c]-imidazo[1,2-a]pyridin-6-yl)-pyrrolidin-1-yl methanone], the “Inhibition of acid secretion (%)” value is listed as <40%.

Take `Cc1nc2c3c(c(C(=O)N(C)C)cn2c1Br)CC[C@H](c1ccccc1)O3` [D, (9R)-3-Bromo-2-methyl-9-phenyl-7H-8,9-dihydro-pyrano[2,3-c]-imidazo[1,2-a]pyridine-6-carboxylic acid dimethylamide]: the “Inhibition of acid secretion (%)” value is on record as <40%.

As for `CNC(=O)c1cn2c(C)c(C)nc2c2c1CC[C@H](c1ccccc1)O2` [G, (9R)-2,3-Dimethyl-9-phenyl-7H-8,9-dihydro-pyrano[2,3-c]-imidazo[1,2-a]pyridine-6-carboxylic acid methylamide], the “Inhibition of acid secretion (%)” value is on record as <40%.

As for `COCc1cn2c(C)c(C)nc2c2c1CC[C@@H](c1ccccc1)O2` [Example 13, (9S)-6-Methoxymethyl-2,3-dimethyl-9-phenyl-7H-8,9-dihydro-pyrano[2,3-c]-imidazo[1,2-a]pyridine], the “Inhibition of acid secretion (%)” value was 100%.

Consider `Cc1nc2c3c(c(C(=O)N4CCCC4)cn2c1C)CC[C@@H](c1ccccc1)O3` [Example 6, (9S)-(2,3-Dimethyl-9-phenyl-7H-8,9-dihydro-pyrano[2,3c]-imidazo[1,2-a]pyridin-6-yl)-pyrrolidin-1-yl methanone], for which the “Inhibition of acid secretion (%)” value is 100%.

Consider `Cc1nc2c3c(c(C(=O)N(C)C)cn2c1C)CC[C@H](c1ccccc1)O3` [B, (9R)-2,3-Dimethyl-9-phenyl-7H-8,9-dihydro-pyrano[2,3-c]-imidazo[1,2-a]pyridine-6-carboxylic acid dimethylamide], for which the “Inhibition of acid secretion (%)” value is on record as <40%.

On to `CCc1c(C)nc2c3c(c(C(=O)N(C)C)cn12)CC[C@H](c1ccccc1)O3` [E, (9R)-3-Ethyl-2-methyl-9-phenyl-7H-8,9-dihydro-pyrano[2,3-c]-imidazo[1,2-a]pyridine-6-carboxylic acid dimethylamide], for which the “Inhibition of acid secretion (%)” value is <30%.

In the case of `Cc1nc2c3c(c(C(=O)N(C)C)cn2c1C)CC[C@H](c1ccccc1F)O3` [J, (9R)-9-(2-Fluorophenyl)-2,3-dimethyl-7H-8,9-dihydro-pyrano[2,3c]-imidazo[1,2-a]pyridine-6-carboxylic acid dimethylamide], the “Inhibition of acid secretion (%)” value is reported as <50%.

Staying with this assay, now noted: dose 6 μmol/kg i.d., anesthetized CD rat, intraduodenal administration.
As to `Cc1nc2c3c(c(C(=O)N(C)C)cn2c1CO)CC[C@H](c1ccccc1)O3` [C, (9R)-3-Hydroxymethyl-2-methyl-9-phenyl-7H-8,9-dihydro-pyrano[2,3c]-imidazo[1,2-a]pyridine-6-carboxylic acid dimethylamide], the “Inhibition of acid secretion (%)” value was <30%.

With `Cc1nc2c3c(c(C(=O)N(C)C)cn2c1CO)CC[C@@H](c1ccccc1)O3` [Example 3, (9S)-3-Hydroxymethyl-2-methyl-9-phenyl-7H-8,9-dihydro-pyrano[2,3-c]-imidazo[1,2-a]pyridine-6-carboxylic acid dimethylamide], the “Inhibition of acid secretion (%)” value is recorded as >50%.
